Entries after “also recorded” stand apart in the source; their conditions may differ. Square brackets hold non-standard residues; d marks the D form. Primed or numbered codes have the meaning given here. Ends that are not written are not given here. Peptide text beside a SMILES is read from it. * marks the point of attachment. PEG2′ = N-terminal cap of 2 polyethylene glycol units (PEG2); PEG4′ = N-terminal cap of 4 polyethylene glycol units (PEG4); 5FAM = O=C1OC2(c3ccc(O)cc3Oc3cc(O)ccc32)c2ccc(C(=O)*)cc21; Butanoyl(4-maleimido) = O=C1C=CC(=O)N1CCCC(=O)*; Stearoyl = CCCCCCCCCCCCCCCCCC(=O)*; Palmitoyl = CCCCCCCCCCCCCCCC(=O)*; Myristoyl = CCCCCCCCCCCCCC(=O)*; Hexanoyl = CCCCCC(=O)*
What was measured:
lymph node cells = experiment: Intracellular expression and frequency of peptide in cultured lymph node cells, confocal microscopy and FACS; type: cell-based, mouse; conditions: 1 μg/mL, FIG. 7
peritoneal macrophages [1] = experiment: Fluorescence-expressing peritoneal macrophages after intraperitoneal fluorescently labeled peptide, FACS; type: in vivo, mouse
[2] = Skin tissue penetrability, confocal microscopy of skin after topical fluorescent peptide; type: in vivo, mouse; conditions: 1 μg applied to skin of ICR mice, with or without needle scratch, skin collected 2 hours later; FIG. 5
Source text: To determine the skin tissue penetration of the A900 peptide, peptide A900 peptide (A900-FAM) with fluorescent substance FAM (Carboxyfluorescein) attached to the N-terminus of A900 peptide was applied to the skin of ICR 4-week-old mice.

peritoneal macrophages [3] = experiment: Intracellular expression and frequency of peptide in cultured peritoneal macrophages, confocal microscopy and FACS; type: cell-based, mouse; conditions: 1 μg/mL, FIG. 8
Description: Peritoneal macrophages were isolated from the same mouse used in FIG. 7 to culture the cell suspension. Anti-CD3 (1 μg/ml) antibodies were plated on a petri dish at room temperature for 3 hours and cells were inoculated (5×10^5 cells/well). After 1 hour, anti-CD28 antibodies (1 μg/ml), IL-23 (20 ng/ml), IL-6 (20 ng/ml), and TGF-β (5 ng/ml) were added.

IL-4, IL-31, IL-17 = experiment: Cytokine expression in spleen by real-time PCR after treating atopic skin lesions with external preparation; type: in vivo, mouse; conditions: external preparation on skin lesions, FIG. 9
IL-4, IL-13, IL-21 = experiment: Real-time PCR of cytokines in splenocytes and lymph node cells from atopic mice cultured with peptides; type: cell-based, mouse; conditions: 24 hours, compared to untreated control (ADC), FIGS. 11 and 12
[4] = test system: IL-13, IL-4, TNF alpha, IL-17; experiment: Cytokines in mice having atopic dermatitis after peptide A900 treatment (summary statement); type: in vivo, mouse
[5] = test system: cells secreting atopy associated cytokines; experiment: In vivo FACS of intracellular cytokines in PBLs after external preparation for 5 days in atopic mice; set-up: species or system mouse; conditions: external preparation 1 μg/ml for 5 days, compared to ADC mice given PBS, FIG. 13
Description: (§1) After removing hair from 6-week-old Balb/c male mice, application was performed with 1% DNCB 1 time/day for 2 days and 0.5% DNCB 1 time/day for 3 days for a total of 5 days, to induce atopic symptoms (N=5-8 mice for each group). After administering the external preparation to mouse skin for 5 days in mice having atopic symptoms, peripheral blood leukocytes (PBLs) were isolated and the frequency of each cytokine expressing cell was analyzed and compared after intracellular staining with antibodies for FACS. The control group was given with an anti-inflammatory moisturizing cream external preparation (5 times) and administered with an anti-mouse IL-4 receptor antibody (100 ug/mouse) intraperitoneal injection (1 time). A900, A900M, A900MAL, and A900PEG4 were used for peptides, and the concentration was set to 1 μg/ml. Cytokines were subjected to intracellular staining to measure the frequency of stained cell population.

[6] = test system: atopic dermatitis induced with dinitrochlorobenzene (DNCB); experiment: DNCB-induced atopic dermatitis mouse model, peptide applied as external preparation; type: in vivo; conditions: FIG. 1
Description: Experimental mice were bred in a 12-hour light/dark cycle, free of pathogens at a constant temperature of 23° C. and 55% humidity. After an adaptation period of several days, DNCB-induced atopic dermatitis was induced in mice by the following method.
First, the hair in the dorsal skin area was carefully shaved using a hair removal cream, and then 100 μL of 1% dinitrochlorobenzene (DNCB) dissolved in acetone was locally treated to exposed skin once a day for 3 days to sensitize the skin and induce atopic dermatitis.
A positive control group obtained by treating mice having atopic dermatitis with anti-inflammatory moisturizing cream (Control Cream) and Dupixent injection which is a therapeutic agent for atopic dermatitis was compared with a peptide (A900 peptide) treated group.

[7] = test system: CD4 T cells secreting atopy associated cytokines; experiment: Ex vivo FACS of PBMCs from atopic mice cultured with peptides; type: cell-based, mouse; conditions: 3 μg/ml, 24 hours, compared to untreated control group (ADC), FIG. 10
Description: After removing hair from 6-week-old Balb/c male mice, application was performed with 1% DNCB 1 time/day for 2 days and 0.5% DNCB 1 time/day for 3 days for a total of 5 days to induce atopic symptoms. PBMCs were isolated from atopic mice, seeded in 24 well plates, treated with peptides, cultured for 24 hours, and then analyzed by FACS. PBMCs isolated from normal mice and atopy-induced mice were used as control groups, and peptides were treated to PBMC cultures isolated from atopic mice. Dupixent was used for the peptide control group (Dupixent 5 μg/ml). A900, A900P, A900H, A900S, A900M, A900MAL, A900PEG2, and A900PEG4 were used as the peptides, and the concentration was set to 3 μg/ml. Surface was stained with anti-CD4 antibodies, cytokines were subjected to intracellular staining, and the frequency of double stained population was measured.

[8] = test system: CD11b+Ly6G+, CD83+ and Foxp3+ positive cells; experiment: FACS of peripheral blood leukocytes (PBLs) from atopic dermatitis mice after peptide administration; type: in vivo, mouse; conditions: FIG. 3
[9] = test system: IL-4R alpha, CCR3 and CTLA-4 positive cells; experiment: FACS of splenocytes from atopic dermatitis mice after external preparation for five days; type: in vivo, mouse; conditions: FIG. 2
Description: In order to identify whether the peptide that has the effect of alleviating atopic dermatitis inflammation has an immunoregulatory function, splenocytes and peripheral blood leukocytes (PBLs) were separately isolated after administrating the external preparation into the mouse skin for five days, surface staining was performed with antibodies for FACS, and then the frequency of cells expressing interleukin 4 receptor (IL-4R) alpha, C—C chemokine receptor type 3 (CCR3), and cytotoxic T-lymphocyte-associated protein 4 (CTLA-4) was analyzed via flow cytometry. Dupixent was administered in a form of a peritoneal injection and tested as a control group.

IL-4 = IL-4 expression in splenocytes of treated atopic dermatitis mice by real-time PCR; type: in vivo, mouse; conditions: FIG. 4
[10] = test system: CD4 cells secreting IL-13 and IL-31; experiment: In vivo FACS of cytokine-expressing CD4 cells in PBLs after external preparation in atopic mice; set-up: species or system mouse; conditions: external preparation 1 μg/ml for 5 days, FIG. 14
Description: as §1
Peripheral blood leukocytes (PBLs) isolated from the same mice as in FIG. 13 were isolated and subjected to CD4 surface staining and intracellular staining with antibodies for FACS to analyze and compare the frequency of each cytokine-expressing CD4 cell.

[11] = PBLs of mice having atopic dermatitis
[12] = external preparation for five days

Compound | expression of IL-4 (IL-4, IL-31, IL-17) | expression of IL-17 (IL-4, IL-31, IL-17) | expression of IL-31 (IL-4, IL-31, IL-17) | IL-4 expression (IL-4, IL-13, IL-21) | IL-13 expression (IL-4, IL-13, IL-21) | IL-21 expression (IL-4, IL-13, IL-21) | frequency of CD4 T cells secreting atopy associated cytokines [7] | also measured
CC[C@H](C)[C@H](NC(=O)[C@H](CCC(=O)O)NC(=O)CNC(=O)[C@H](CS)NC(=O)[C@H](CCCNC(=N)N)NC(=O)[C@H](CC(C)C)NC(=O)[C@@H](NC(=O)[C@@H](NC(=O)[C@@H](NC(=O)[C@H](CS)NC(=O)CNC(=O)c1ccc2c(c1)C(=O)OC21c2ccc(O)cc2Oc2cc(O)ccc21)C(C)C)[C@@H](C)O)C(C)C)C(=O)N[C@H](C(=O)O)C(C)C [A900-FAM] (5FAM-GCVTVLRCGEIV-OH) |  |  |  |  |  |  |  | cell frequency expressing peptide (lymph node cells; 1-hour treated group): 20%; cell frequency expressing peptide (lymph node cells; 24-hour treated group): 40%; fluorescence-expressing cells (peritoneal macrophages [1]; 3 μg into abdominal cavity, after 3 hours, FIG. 6): barely detected; peritoneal macrophages expressing fluorescence (peritoneal macrophages [1]; 3 μg into abdominal cavity, at 30 minutes, FIG. 6): 50%; peritoneal macrophages expressing fluorescence (peritoneal macrophages [1]; 3 μg into abdominal cavity, at 1 hour, FIG. 6): 23%; time the peptide is maintained in the cell (peritoneal macrophages [1]; 3 μg intraperitoneally, cells in the abdominal cavity): more than 1 hour; skin tissue penetration (fluorescence in skin tissue) [2]: fluorescence was detected in both the epidermis and dermis; cell frequency expressing peptide (peritoneal macrophages [3]; 1-hour culture group): 10%; cell frequency expressing peptide (peritoneal macrophages [3]; 24-hour culture group): 15%
GCESEILCGEIV [A907] | inhibited | inhibited | inhibited |  |  |  |  | 
GCETELRCGEIV [A903] | inhibited | inhibited | inhibited |  |  |  |  | 
GCETVLRCGEIV [A901] | inhibited | inhibited | inhibited |  |  |  |  | 
GCLRCGEIV [A914] | inhibited | inhibited | inhibited |  |  |  |  | 
GCVTELRCGEIV [A902] | inhibited | inhibited | inhibited |  |  |  |  | 
GCVTVCGEIV [A911] | inhibited | inhibited | inhibited |  |  |  |  | 
GCVTVLRCGEIV [A900] | inhibited | inhibited | inhibited | inhibited | inhibited | inhibited | inhibited | cytokines such as IL-13, IL-4, TNF alpha, and IL-17 [4]: reduced; frequency of cells secreting atopy associated cytokines [5]: inhibited; atopic dermatitis symptoms ([6]; external preparation applied to mice with DNCB-induced atopic dermatitis): alleviated; speed of appearance of the effect compared with control group ([6]; versus Control Cream / Dupixent injection positive control): faster than the control group; frequency of CD11b+Ly6G+ positive cells [8, 11]: inhibited; frequency of CD83+ positive cells [8, 11]: inhibited; frequency of Foxp3+ positive cells [8, 11]: increased; degree of inhibition of CD11b+Ly6G+ and CD83+ positive cells compared with control administered group ([8]; PBLs): more effective than in the control administered group; degree of inhibition of IL-4R alpha, CCR3 and CTLA-4 positive cells compared with control administered group ([9]; control Dupixent peritoneal injection): more effective than that of the control administered group; frequency of CCR3 positive cells [9, 12]: tended to be inhibitive; also recorded: decreased; frequency of CTLA-4 positive cells [9, 12]: tended to be inhibitive; also recorded: decreased; frequency of IL-4R alpha positive cells [9, 12]: tended to be inhibitive; also recorded: decreased; IL-4 expression (IL-4): inhibited
Hexanoyl-GCVTVLRCGEIV (cysteine pairing not given here) [A900H] |  |  |  | inhibited | inhibited | inhibited |  | 
Maleimidobutyrol-GCVTVLRCGEIV ({Butanoyl(4-maleimido)}-GCVTVLRCGEIV; cysteine pairing not given here) [A900MAL] |  |  |  | inhibited | inhibited | inhibited | inhibited | frequency of CD4 cells secreting IL-13 [10]: inhibited; frequency of CD4 cells secreting IL-31 [10]: inhibited; frequency of cells secreting atopy associated cytokines [5]: inhibited
Myristoyl-GCVTVLRCGEIV (cysteine pairing not given here) [A900M] |  |  |  | inhibited | inhibited | inhibited | inhibited | frequency of cells secreting atopy associated cytokines [5]: inhibited
PEG2-GCVTVLRCGEIV ([PEG2′]GCVTVLRCGEIV; cysteine pairing not given here) [A900PEG2] |  |  |  | inhibited | inhibited | inhibited |  | 
PEG4-GCVTVLRCGEIV ([PEG4′]GCVTVLRCGEIV; cysteine pairing not given here) [A900PEG4] |  |  |  | inhibited | inhibited | inhibited | inhibited | frequency of cells secreting atopy associated cytokines [5]: inhibited
Palmitoyl-GCVTVLRCGEIV (cysteine pairing not given here) [A900P] |  |  |  | inhibited | inhibited | inhibited | inhibited | 
Stearoyl-GCVTVLRCGEIV (cysteine pairing not given here) [A900S] |  |  |  |  |  |  | inhibited | 
